What was measured:
[1] = tested on: VCAM-1 expression in TSEC; experiment: Palmitate-induced VCAM-1 expression in TSEC; format: cell-based, mouse; conditions: 500 μM PA, 16 hours
Method: Transformed mouse liver sinusoidal endothelial cells (TSEC) were obtained. Primary human liver sinusoidal endothelial cells (LSEC) were purchased from ScienCell Research Laboratories (San Diego, Calif.). To yield primary mouse LSECs, cell suspensions obtained with liver collagenase perfusion were centrifuged at 50 g for 2 minutes to remove hepatocytes. The supernatant which includes non-parenchymal cells was subjected to LSEC isolation using CD146 MicroBeads (Miltenyi Biotec, Bergisch Gladbach, Germany) following the manufacture's instruction. […]
Cells were lysed using RIPA buffer (50 mM Tris-HCl, pH 7.4; 1% Nonidet P-40; 0.25% sodium deoxycholate; 150 mM NaCl; 1 mM EDTA with protease inhibitors) followed by centrifugation at 15,000 g for 15 minutes at 4° C. Protein concentrations of the lysates were measured by the Bradford assay method (Sigma-Aldrich). […] Proteins were detected using enhanced chemiluminescence reagents (GE Healthcare, Chicago, Ill.). β-actin and GAPDH protein levels were used as loading controls.
Total RNA was isolated with the RNeasy Mini Kit (Qiagen, Valencia, Calif.) and was reverse transcribed with moloney murine leukemia virus reverse transcriptase and oligo-dT random primers (both from Invitrogen, CA, USA). Quantification of gene expression was performed by real-time PCR using SYBR green fluorescence on a LightCycler 480 instrument (Roche Applied, IN, USA). […]

[2] = tested on: FFC diet-fed C57BL/6J mice (diet-induced NASH); experiment: FFC diet-induced NASH mouse model, VCAM-1 blockade (antibody or AGI-1067); format: in vivo; conditions: AGI-1067 25 mg/kg i.p. daily for 15 days, vs vehicle
Description: C57BL/6J male mice were purchased from Jackson Laboratory (Bar Harbor, Me.). Mice were housed and bred in a temperature-controlled 12:12-hour light-dark cycle facility with free access to diet. The mice were fed either a chow diet (5053 PicoLab Rodent Diet 20, LabDiet, St Louis, Mo.) or a diet rich in fat, fructose, and cholesterol (FFC) at 8-weeks old for 24 weeks. FFC diet consists of 40% energy as fat (12% saturated fatty acid, 0.2% cholesterol) (AIN-76A Western Diet, TestDiet, St Louis, Mo.), with fructose (23.1 g/L) and glucose (18.9 g/L) in the drinking water. The FFC diet induces steatohepatitis with pronounced hepatocellular ballooning, lipoapoptosis, and progressive fibrosis with a high fidelity to the human NASH histology and metabolic profile. At 20 weeks on the diet, the mice were randomized to receive either anti-VCAM-1 neutralizing antibody (M/K-2.7), (Genetex, GTX14360) or IgG isotype antibody (BE0088, InVivoMAb). Mice were injected with 10 mg/kg body weight of either of the antibodies intraperitoneally, twice per week for 4 weeks. Another cohort of Chow or FFC diet-fed mice was randomized to receive either vehicle or VCAM-1 inhibitor succinobucol (AGI-1067). Mice were injected with either vehicle or 25 mg/kg body weight of AGI-1067 intraperitoneally, daily for 15 days. Total caloric intake at the 3rd week of VCAM-1 antibody treatment and the first week of AGI-1067 treatment was calculated based on the weight of food and drinking water consumption. At the third week of anti-VCAM-1 neutralizing antibody treatment, metabolic parameters, including oxygen consumption, carbon dioxide production, and locomotor activity, were measured using a Comprehensive Lab Animal Monitoring System (CLAMS, Columbus Instruments, OH). Anti-VCAM-1 antibody from Bio Xcell (West Lebanon, N.H.), (BE0027) was used for the CLAMS study. Blood glucose levels and plasma insulin levels were measured using Assure 4 (Arkray, Edina, Minn.) and Ultra-Sensitive Mouse Insulin enzyme-linked immunosorbent assay (ELISA) kit (Crystal Chem Inc., Downers Grove, Ill.), respectively. Homeostasis model assessment of insulin resistance (HOMA-IR) was calculated by using the following formula: HOMA-IR=26×fasting insulin level (ng/mL)×fasting glucose level (mg/dL)/405. Mice were sacrificed under general anesthesia induced by a ketamine/xylazine cocktail (83 mg/kg ketamine, 16 mg/kg xylazine, intraperitoneal injection). All interventions were made during the light cycle. Blood and liver samples were collected for further study.
Liver triglyceride levels were measured in mouse liver homogenates. Fifty milligrams of liver tissue was homogenized in a 5% NP-40 solution. EnzyChrom Triglyceride Kit (BioAssay System, CA) was used for the assay according to the manufacturer's instruction. Photometric absorbance was read at 570 nm using a Synergy H1 microplate reader (BioTek). Serum alanine aminotransferase (ALT) levels were measured by VetScan2 (Abaxis Veterinary Diagnostics, Union City, Calif.).
Liver histology was performed using tissue fixed in 10% formalin, dehydrated, and embedded in paraffin. Hematoxylin and eosin (H&E) staining and Sirius red staining were performed. Severity of NASH was assessed using nonalcoholic fatty liver disease (NAFLD) activity score (NAS), a semi-quantitative score that accounts for steatosis, ballooned hepatocytes, and lobular inflammation. Terminal deoxynucleotidyl transferase deoxyuridine triphosphate nick-end labeling (TUNEL) assay was performed using the ApopTag Peroxidase In Situ Apoptosis Detection Kit (Millipore Sigma, St. Louis, Mo.); diaminobenzidine (DAB) was used as a peroxidase substrate (Vector Laboratories, Burlingame, Calif.); 0.5% methyl green was used for the counterstain. […]

[3] = tested on: active ITGβ1 in Huh7 cells; experiment: LPC-induced ITGβ1 activation in Huh7 cells (immunoprecipitation/immunoblot, immunofluorescence); format: cell-based, human; conditions: 10 μM SB203580
Method: Whole cell lysates (WCL) were obtained using immuno-precipitate (IP) buffer (50 mM Tris-HCl, pH 7.4; 1% Nonidet P-40; 150 mM NaCl) with protease inhibitor and phosphatase inhibitor followed by centrifugation at 15,000 g for 15 minutes at 4° C. Protein concentrations of the lysates were measured by the Bradford assay method (Sigma-Aldrich). In pull-down experiments, aliquots containing 1 mg of protein were incubated with either anti-ITGβ1 (MAB13), anti-ITGβ1 (9EG7) antibody or isotype IgG control antibody for 1 hour at 4° C., then incubated overnight with protein G sepharose beads (GE Healthcare) under rotary agitation. Pelleted proteins were washed with IP buffer for seven times, solubilized in SDS sample buffer, boiled for 10 minutes, and then subjected to SDS-PAGE and immunoblot analysis.
Huh7 cells were seeded on fibronectin-coated coverslips and fixed with 4% paraformaldehyde following LPC treatment. After permeabilization using 0.2% TritonX-100, the cells were blocked using blocking buffer (5% bovine serum albumin, 0.1% glycine in PBS) for one hour at room temperature, and then incubated with the primary antibody of interest overnight at 4° C. […] Pearson's correlation coefficient of co-localization was employed to quantify the degree of colocalization between fluorophores. Ten to 20 random fields in each group were selected for quantification and statistical analysis.

Structure (SMILES)	PA-induced VCAM-1 protein level (Western blot) [1]	PA-induced VCAM-1 mRNA expression ([1]; real-time qPCR)	MoMF-related hepatic inflammation by Galectin-3 staining of liver sections [2]	NAS score [2]	hepatic mRNA expression of Acta2 (α-SMA) [2]	hepatic mRNA expression of Ccr2 [2]	hepatic mRNA expression of Cd68 [2]	hepatic mRNA expression of Col1α1 [2]	hepatic mRNA expression of Tnfα [2]	hepatic steatosis [2]	liver injury as number of TUNEL positive hepatocyte [2]	liver triglyceride content [2]	plasma ALT levels [2]	stellate cell activation and liver fibrogenesis by Sirius red staining [2]	stellate cell activation and liver fibrogenesis by immunohistochemistry for α-SMA [2]	LPC-induced activation of ITGβ1 (immunofluorescence microscopy) ([3]; 5 μM LPC 20 minutes)	LPC-induced increase in active ITGβ1 (9EG7 immunoprecipitation, immunoblot) ([3]; 20 μM LPC 15-30 min)
CC(C)(Sc1cc(C(C)(C)C)c(O)c(C(C)(C)C)c1)Sc1cc(C(C)(C)C)c(OC(=O)CCC(=O)O)c(C(C)(C)C)c1 [AGI-1067, succinobucol]	inhibits	inhibits	reduced	reduced	attenuated	reduced	reduced	attenuated	reduced	did not alter	reduced	did not alter	did not reach the statistical significance	attenuated	attenuated	–	–
C[S+]([O-])c1ccc(-c2nc(-c3ccncc3)c(-c3ccc(F)cc3)[nH]2)cc1 (centres unmarked) [SB203580]	–	–	–	–	–	–	–	–	–	–	–	–	–	–	–	diminished	reduced
